The values that follow come from patent publication US20220151896A1, “EFFICIENT SUNSCREEN COMPOSITIONS WITH DIETHYLAMINO HYDROXYBENZOYL HEXYL BENZOATE AND ORGANIC PARTICULATE UV FILTER” (BASF SE, priority 2019, published 2022).

The conditions of data set [1]: general description of the commercial UV filter; cited from earlier work.
A short description of data set [2]: Interfacial tension (polarity index) of emollients, Tensimat Densimat TD2000. In kind it is physicochemical. As to conditions: interfacial tension oil/water. The text has this:
The term “polarity index” refers to non-polar or polar oils. Non-polar oils are mainly based on hydrocarbons and lack an electronegative element, such as oxygen. In contrast, polar oils contain heteroatoms that differ in electronegativity, which results in a dipole moment. However, such oils are still insoluble in water, i.e. hydrophob. The polarity index can be determined by measuring the interfacial tension between the respective oil and water.
Interfacial tension of the respective emollients as listed below was measured using a Tensimat Densimat TD2000.

On to `CCCCC(CC)COC(=O)c1ccc(Nc2nc(Nc3ccc(C(=O)NC(C)(C)C)cc3)nc(Nc3ccc(C(=O)OCC(CC)CCCC)cc3)n2)cc1` (centres unmarked) [diethylhexyl-butamidotriazone, 4,4′-[[6-[[4-[[(1,1-dimethylethyl)amino]carbonyl]phenyl]amino]-1,3,5-triazin-2,4-diyl]diimino]bis-benzoic acid-bis(2-ethylhexyl)ester], for which the absorption maximum in data set [1] is given as 310 nm.
On to `O1[SiH2]O[SiH2]O[SiH2]O[SiH2]O[SiH2]1` (centres unmarked) [cyclopentasiloxane], for which the polarity index in data set [2] was 32 mN/m.
